For data set [1], the target named is T1, Protein deacetylase HDAC6 (Homo sapiens) (UniProt Q9UBN7).
T1 sequence (whole entry): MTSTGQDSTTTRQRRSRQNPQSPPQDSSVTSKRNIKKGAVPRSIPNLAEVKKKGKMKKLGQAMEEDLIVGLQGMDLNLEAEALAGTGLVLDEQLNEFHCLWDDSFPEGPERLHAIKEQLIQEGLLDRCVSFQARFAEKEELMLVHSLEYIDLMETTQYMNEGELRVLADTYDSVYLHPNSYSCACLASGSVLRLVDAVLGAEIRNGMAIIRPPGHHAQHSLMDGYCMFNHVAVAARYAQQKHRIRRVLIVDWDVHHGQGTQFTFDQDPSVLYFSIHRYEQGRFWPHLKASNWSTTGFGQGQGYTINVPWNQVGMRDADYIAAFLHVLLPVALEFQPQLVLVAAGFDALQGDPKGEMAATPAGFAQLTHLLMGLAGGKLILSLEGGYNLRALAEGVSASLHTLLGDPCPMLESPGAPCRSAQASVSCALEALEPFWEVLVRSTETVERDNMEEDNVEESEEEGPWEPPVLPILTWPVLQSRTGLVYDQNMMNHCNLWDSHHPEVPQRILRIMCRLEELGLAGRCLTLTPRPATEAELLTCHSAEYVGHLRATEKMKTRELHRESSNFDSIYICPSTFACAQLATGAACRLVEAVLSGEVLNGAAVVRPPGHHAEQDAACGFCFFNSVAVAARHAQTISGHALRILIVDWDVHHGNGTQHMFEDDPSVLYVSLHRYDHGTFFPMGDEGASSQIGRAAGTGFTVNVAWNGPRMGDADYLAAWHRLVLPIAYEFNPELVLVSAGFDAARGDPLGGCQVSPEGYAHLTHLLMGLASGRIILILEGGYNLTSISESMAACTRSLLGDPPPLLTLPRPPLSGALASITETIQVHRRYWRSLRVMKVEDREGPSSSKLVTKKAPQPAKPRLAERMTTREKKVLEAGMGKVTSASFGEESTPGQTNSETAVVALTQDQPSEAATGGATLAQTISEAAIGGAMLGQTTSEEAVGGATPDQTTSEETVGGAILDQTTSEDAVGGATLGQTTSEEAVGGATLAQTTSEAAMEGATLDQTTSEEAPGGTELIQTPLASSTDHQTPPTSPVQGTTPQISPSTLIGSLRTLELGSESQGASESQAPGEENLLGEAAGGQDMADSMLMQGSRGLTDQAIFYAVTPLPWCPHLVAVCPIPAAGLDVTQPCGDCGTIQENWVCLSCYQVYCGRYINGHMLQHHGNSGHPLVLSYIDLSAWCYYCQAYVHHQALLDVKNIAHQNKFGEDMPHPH
Put plainly: Inhibition of HDAC6 in human K562 cells assessed as accumulation of acetylation of H3 at 1 to 10 uM measured after 48 hrs by Western blot analysis. Type of data set: cell-based. The following applies: dose 1-10 µM. Background: In western blotting, separated proteins are transferred to a membrane and probed.

Data set [2] deals with K562. Put plainly: Cycle arrest in human K562 cells assessed as increase in cell population at S phase measured after 24 hrs by propidium iodide/RNase staining based flow cytometry. The following applies: dose 2.5-10 µM. Type of data set: functional.
The next data set has as its system HeLa. Put plainly: Potency index, ratio of SAHA IC50 to test compound IC50 for antiproliferative activity against human HeLa cells assessed as cell growth inhibition measured after 48 hrs by CCK8 assay. It counts as functional. Background: Tetrazolium assays rely on reduction of a dye to a coloured formazan, in cell work by metabolically active cells.
Data set [3] has as its target T1, Protein deacetylase HDAC6 (Homo sapiens). Put plainly: Inhibition of HDAC6 in human A549 cells assessed as accumulation of acetylation of H3 at 1 to 10 uM measured after 48 hrs by Western blot analysis. Type of data set: cell-based. The following applies: dose 1-10 µM.
A short description of data set [4]: Toxicity in iv dosed BALB/c nude mouse assessed as maximum tolerated dose administered once daily for 5 consecutive days. Type of data set: organism-based. The following applies: in vivo, time 5 day.
In data set [5] the test system is A549. In words: Antitumor activity against human A549 cells xenografted in BALB/c nude mouse assessed as tumor growth inhibition at 0.75 to 1.5 mg, IT (intratumoral) administered for 21 consecutive days relative to control. Type of data set: functional. The following applies: dose 0.75-1.5 mg, time 21 day. For orientation: Xenograft models place foreign cells or tissue in a host animal.

For data set [6], the target named is T1, Protein deacetylase HDAC6 (Homo sapiens). Put plainly: Inhibition of HDAC6 in human A549 cells assessed as increase in alpha tubulin acetylation measured after 48 hrs by Western blot analysis. It counts as cell-based. The following applies: dose 1-10 µM.
Data set [7] concerns A549. In words: Antitumor activity against human A549 cells xenografted in BALB/c nude mouse assessed as tumor growth inhibition at 25 mg/kg, iv administered for 21 consecutive days relative to control. Type of data set: functional. The following applies: 504 h, time 21 day, read-out: TGI.
The subject of data set [8] is MCF7. Put plainly: Cycle arrest in human MCF7 cells assessed as increase in cell population at S phase measured after 24 hrs by propidium iodide/RNase staining based flow cytometry. Type of data set: functional. The following applies: dose 2.5-10 µM.
Data set [9] relates to MCF7. In words: Induction of apoptosis in human MCF7 cells measured after 48 hrs by Annexin-V/FITC-propidium iodide staining based flow cytometry analysis. Type of data set: functional, cell-based. The following applies: dose 2.5-10 µM.
Data set [10] deals with K562. In words: Induction of apoptosis in human K562 cells measured after 48 hrs by Annexin-V/FITC-propidium iodide staining based flow cytometry analysis. It counts as functional, cell-based. The following applies: dose 2.5-10 µM.
The target in data set [11] is T1, Protein deacetylase HDAC6 (Homo sapiens). In words: Inhibition of HDAC6 in human A549 cells assessed as accumulation of acetylation of H4 at 1 to 10 uM measured after 48 hrs by Western blot analysis. It counts as cell-based. The following applies: dose 1-10 µM.
In data set [12] the test system is A549. In words: Potency index, ratio of SAHA IC50 to test compound IC50 for antiproliferative activity against human A549 cells assessed as cell growth inhibition measured after 48 hrs by CCK8 assay. It counts as functional.
Data set [13] concerns the target T1, Protein deacetylase HDAC6 (Homo sapiens). In words: Inhibition of HDAC6 in human K562 cells assessed as increase in alpha tubulin acetylation measured after 48 hrs by Western blot analysis. The following applies: dose 1-10 µM. It counts as cell-based.
For data set [14] the target is unchanged. Put plainly: Inhibition of HDAC6 in human MCF7 cells assessed as accumulation of acetylation of H4 at 1 to 10 uM measured after 48 hrs by Western blot analysis. Type of data set: cell-based. The following applies: dose 1-10 µM.
The subject of data set [15] is A549. Put plainly: Antitumor activity against human A549 cells xenografted in BALB/c nude mouse assessed as tumor growth inhibition at 50 mg/kg, iv administered for 21 consecutive days relative to control. The following applies: 504 h, time 21 day, read-out: TGI. Type of data set: functional.
The test system of data set [16] is K562. Put plainly: Induction of apoptosis in human K562 cells assessed as increase in sum of early and late apoptotic cells at 2.5 to 10 uM measured after 48 hrs by Annexin-V/FITC-propidium iodide staining based flow cytometry analysis. Type of data set: functional, cell-based. The following applies: dose 2.5-10 µM.
Data set [17] concerns the target T2, Cyclin-dependent kinase 2/4/6 (Homo sapiens) (UniProt P11802+P24941+Q00534). Put plainly: Inhibition of CDK2/4/6 in human A549 cells assessed as decrease in Rb phosphorylation at 10 uM incubated for 24 hrs followed by compound washout by DAPI staining based immunofluorescence assay. Type of data set: cell-based.
Data set [18] deals with T1, Protein deacetylase HDAC6 (Homo sapiens). Put plainly: Inhibition of HDAC6 in human MCF7 cells assessed as increase in alpha tubulin acetylation measured after 48 hrs by Western blot analysis. Type of data set: cell-based. The following applies: dose 1-10 µM.
In data set [19] the test system is A549. In words: Induction of apoptosis in human A549 cells assessed as increase in PARP cleavage measured after 48 hrs by Western blot analysis. Type of data set: functional, cell-based. The following applies: dose 1-10 µM.
Data set [20] in a line: Bioavailability in Sprague-Dawley rat at 50 mg/kg, ip measured up to 24 hrs by LC-MS analysis. The following applies: in vivo. Type of data set: ADME, organism-based.
The subject of data set [21] is A549. Put plainly: Antitumor activity against human A549 cells xenografted in BALB/c nude mouse assessed as reduction in tumor weight at 25 to 50 mg/kg, iv administered for 21 consecutive days. It counts as functional, organism-based. The following applies: dose 25-50 mg/kg, time 21.0 day.
In data set [22] the target is T2, Cyclin-dependent kinase 2/4/6 (Homo sapiens). In words: Inhibition of CDK2/4/6 in human A549 cells assessed as decrease in Rb phosphorylation measured after 48 hrs by Western blot analysis. It counts as cell-based. The following applies: dose 1-10 µM.

Molecules are shown by their SMILES. Activity calls are given as the source filed them. No cut-off for these calls is given here. Where only a bound is given, the exact number is not on record here.

Broadly, the MTD is the highest dose tested that stayed within the study's limit of toxicity. The TGI is the reduction of tumour growth relative to the control group. What is called bioavailability is dose-corrected exposure relative to a reference, in per cent. A low value points to little systemic uptake. Consider `O=C(CCCO/N=C1/C(=C2/C(=O)Nc3ccccc32)Nc2ccccc21)NO`, for which the inhibition result in data set [1], in [3], in [11] and in [14] was “inactive” throughout. Moreover, the Activity entry with K562 [2], in the data set on MCF7 [8], in the data set on MCF7 [9], with K562 [10] and with A549 [19] was “Dose-Dependent Effect” each time. Also, the “Ratio IC50” value in the data set with HeLa and in the data set with A549 [12] was 3 each time. In data set [4], the MTD at 120 h is ≤ 200 mg/kg. Further, in the data set with A549 [5], the TGI is listed as 67.1%. The inhibition result in [6], in data set [13], in data set [18] and in [22] was “Dose-Dependent Effect” throughout. Besides, in the data set on A549 [7], the inhibition in vivo at 25 mg/kg was determined as 43.2%. Moreover, the inhibition in vivo at 50 mg/kg in the data set on A549 [15] amounted to 66.6%. The outcome in the data set on K562 [16] and with A549 [21] was Active. For the same molecule, the inhibition result in [17] is “Active”. Besides, the bioavailability in data set [20] was determined as 13%.

Source of the values: ChEMBL document CHEMBL4842385, “Indirubin Derivatives as Dual Inhibitors Targeting Cyclin-Dependent Kinase and Histone Deacetylase for Treating Cancer” (J Med Chem, 2021).
